The text below walks through data of ChEMBL document CHEMBL1140532, “Omega-alkoxy analogues of SAHA (vorinostat) as inhibitors of HDAC: a study of chain-length and stereochemical dependence” (Bioorg Med Chem Lett, 2007).

Assay [1] deals with Histone deacetylase 2 (Homo sapiens, UniProt Q92769). Description: Inhibition of HDAC2 in HeLa cell lysates.
Assay [2] has as its system NB-4. Description: Growth inhibition of human NB4 cells by SRB assay. Type of assay: functional, cell-based. In general terms: In SRB staining, fixed cells bind dye roughly in proportion to their protein.
Assay [3] relates to NCI-H460. Description: Growth inhibition of human H460 cells by SRB assay. It is filed as functional, cell-based.
Assay [4] deals with HCT-116. Nature of the assay: Growth inhibition of human HCT116 cells by SRB assay. It is filed as functional, cell-based.

Sequence of Histone deacetylase 2 (Q92769 whole entry): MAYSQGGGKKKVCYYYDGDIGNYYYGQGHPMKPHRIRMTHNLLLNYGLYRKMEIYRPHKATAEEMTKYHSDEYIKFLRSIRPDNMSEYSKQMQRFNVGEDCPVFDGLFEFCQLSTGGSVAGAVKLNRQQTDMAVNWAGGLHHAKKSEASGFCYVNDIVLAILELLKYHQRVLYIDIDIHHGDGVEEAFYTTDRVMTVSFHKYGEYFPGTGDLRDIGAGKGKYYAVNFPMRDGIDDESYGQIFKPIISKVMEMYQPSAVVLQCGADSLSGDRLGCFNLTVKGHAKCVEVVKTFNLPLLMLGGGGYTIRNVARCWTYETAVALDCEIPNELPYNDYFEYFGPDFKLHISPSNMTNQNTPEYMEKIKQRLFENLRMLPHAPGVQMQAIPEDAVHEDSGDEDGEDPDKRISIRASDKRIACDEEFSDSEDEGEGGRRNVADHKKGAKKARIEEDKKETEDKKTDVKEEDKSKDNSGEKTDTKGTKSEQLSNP

What is called IC50 is the midpoint of a concentration-inhibition curve. Turning to `COc1cccc(COC(CCCCCC(=O)NO)C(=O)N(Cc2cccc(OC)c2)c2ccccc2)c1` (stereo not given), the IC50 was found to be 500 nM in assay [1], 4000 nM in assay [2], 7400 nM in assay [3] and 7500 nM in assay [4].
Take `O=C(CCCCCC(O)C(=O)Nc1ccccc1)NO` (stereo not given): the IC50 in assay [1] is 500 nM; in assay [2], 340 nM; in assay [3], 460 nM; in assay [4], 1090 nM.
Take `O=C(CCCCCC(Oc1cccc(Oc2ccccc2)c1)C(=O)Nc1ccccc1)NO` (stereo not given): the IC50 in assay [2] worked out at 230 nM; in assay [3], 680 nM; in assay [4] it was 670 nM.
As for `CCCOC(CCCCC(=O)NO)C(=O)Nc1ccccc1` (stereo not given), the IC50 came to 500 nM in assay [1], 4100 nM in assay [2], 10400 nM in assay [3] and 8500 nM in assay [4].
The corresponding values for `C=CCOC(CCCCCCC(=O)NO)C(=O)Nc1ccccc1` (stereo not given) are not below 50 nM, 620 nM, 1800 nM and 950 nM.
The corresponding values for `COc1cccc(COC(CCCCCC(=O)NO)C(=O)Nc2ccccc2)c1` (stereo not given) are not below 50 nM, 160 nM, 590 nM and 630 nM.
The corresponding values for `COc1ccc(COC(CCCCCC(=O)NO)C(=O)Nc2ccccc2)cc1` (stereo not given) are not below 50 nM, 120 nM, 520 nM and 220 nM.
As for `O=C(CCCCCC(OCc1ccc(Br)cc1)C(=O)Nc1ccccc1)NO` (stereo not given), the IC50 in assay [1] was not below 50 nM; in assay [2], 60 nM; in assay [3] it was 490 nM; in assay [4], 280 nM.
The matching figures for `COc1ccc(CO[C@H](CCCCCC(=O)NO)C(=O)Nc2ccccc2)cc1`: not below 50 nM, 70 nM, 500 nM and 390 nM.
The corresponding values for `Cc1ccc(COC(CCCCCC(=O)NO)C(=O)Nc2ccccc2)cc1` (stereo not given) are not below 50 nM, 120 nM, 590 nM and 270 nM.
`COc1cc(COC(CCCCCC(=O)NO)C(=O)Nc2ccccc2)cc(OC)c1` (stereo not given): the IC50 is not below 50 nM in assay [1], 50 nM in assay [2], 450 nM in assay [3] and 300 nM in assay [4].
Consider `C=CCOC(CCCCCC(=O)NO)C(=O)Nc1ccccc1` (stereo not given), for which the IC50 is 500 nM in assay [1], 450 nM in assay [2], 1790 nM in assay [3] and 990 nM in assay [4].
The matching figures for `COC(CCCCCC(=O)NO)C(=O)Nc1ccccc1` (stereo not given): 500 nM, 520 nM, 1200 nM and 880 nM.
The corresponding values for `COc1ccc(NC(=O)C(CCCCCC(=O)NO)OCc2ccccc2)cc1` (stereo not given) are 500 nM, 250 nM, 1000 nM and 500 nM.
The matching figures for `COc1ccc(COC(CCCCCC(=O)NO)C(=O)Nc2ccc(OC)cc2)cc1` (stereo not given): 500 nM, 150 nM, 300 nM and 340 nM.
Consider `O=C(CCCCC(OCc1ccccc1)C(=O)Nc1ccccc1)NO` (stereo not given), for which the IC50 in assay [1] is 500 nM; in assay [2], more than 5000 nM; in assay [3] it was 5500 nM; in assay [4] it was 2400 nM.
The matching figures for `COC(CCCCC(=O)NO)C(=O)Nc1ccccc1` (stereo not given): 500 nM, 3500 nM, 5700 nM and 5000 nM.
On to `O=C(CCCCCC(OCc1ccc(C(F)(F)F)cc1)C(=O)Nc1ccccc1)NO` (stereo not given), for which the IC50 in assay [1] is not below 50 nM; in assay [2], 170 nM; in assay [3], 480 nM; in assay [4] it was 430 nM.
Take `COc1ccc(CO[C@@H](CCCCCC(=O)NO)C(=O)Nc2ccccc2)cc1`: the IC50 in assay [1] is not below 50 nM; in assay [2], 110 nM; in assay [3], 450 nM; in assay [4] it was 250 nM.
